# Test results reported in PubChem BioAssay (NCI).
# Values joined by “and” are separate entries in the source; they are usually repeats but may differ in a detail not shown here. Equal entries are not always repeated.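 Cultured in 96-well plates, cells were exposed to test compound for 48 hours across five concentrations. Abbreviation: GI50, concentration required for 50% inhibition of growth. At the TGI there is no net growth.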
# Assays:
# Assay in all cases: DTP human tumour cell line panel, 48 h
# 786-0 renal = system: 786-0 renal
# A498 renal = system: A498 renal
# A549 NSCLC = system: A549 NSCLC
# ACHN renal = system: ACHN renal
# BT-549 breast = system: BT-549 breast
# CAKI-1 renal = system: CAKI-1 renal
# CCRF-CEM leukemia = system: CCRF-CEM leukemia
# COLO 205 colon = system: COLO 205 colon
# DU-145 prostate = system: DU-145 prostate
# EKVX NSCLC = system: EKVX NSCLC
# HCC-2998 colon = system: HCC-2998 colon
# HCT-116 colon = system: HCT-116 colon
# HCT-15 colon = system: HCT-15 colon
# HL-60(TB) leukemia = system: HL-60(TB) leukemia
# HOP-62 NSCLC = system: HOP-62 NSCLC
# HOP-92 NSCLC = system: HOP-92 NSCLC
# HS 578T breast = system: HS 578T breast
# HT29 colon = system: HT29 colon
# IGROV1 ovarian = system: IGROV1 ovarian
# K-562 leukemia = system: K-562 leukemia
# KM12 colon = system: KM12 colon
# LOX IMVI melanoma = system: LOX IMVI melanoma
# M14 melanoma = system: M14 melanoma
# MALME-3M melanoma = system: MALME-3M melanoma
# MCF7 breast = system: MCF7 breast
# MDA-MB-231 breast = system: MDA-MB-231 breast
# MDA-MB-435 = system: MDA-MB-435
# MDA-N = system: MDA-N
# MOLT-4 leukemia = system: MOLT-4 leukemia
# NCI-H226 lung = system: NCI-H226 lung
# NCI-H23 lung = system: NCI-H23 lung
# NCI-H460 lung = system: NCI-H460 lung
# NCI-H522 lung = system: NCI-H522 lung
# NCI/ADR-RES ovarian = system: NCI/ADR-RES ovarian
# OVCAR-3 ovarian = system: OVCAR-3 ovarian
# OVCAR-4 ovarian = system: OVCAR-4 ovarian
# OVCAR-5 ovarian = system: OVCAR-5 ovarian
# OVCAR-8 ovarian = system: OVCAR-8 ovarian
# PC-3 prostate = system: PC-3 prostate
# RPMI-8226 leukemia = system: RPMI-8226 leukemia
# RXF 393 renal = system: RXF 393 renal
# SF-268 CNS = system: SF-268 CNS
# SF-295 CNS = system: SF-295 CNS
# SF-539 CNS = system: SF-539 CNS
# SK-MEL-2 melanoma = system: SK-MEL-2 melanoma
# SK-MEL-28 melanoma = system: SK-MEL-28 melanoma
# SK-MEL-5 melanoma = system: SK-MEL-5 melanoma
# SK-OV-3 ovarian = system: SK-OV-3 ovarian
# SN12C renal = system: SN12C renal
# SNB-19 CNS = system: SNB-19 CNS
# SNB-75 CNS = system: SNB-75 CNS
# SR leukemia = system: SR leukemia
# SW-620 colon = system: SW-620 colon
# T-47D breast = system: T-47D breast
# TK-10 renal = system: TK-10 renal
# U251 CNS = system: U251 CNS
# UACC-257 melanoma = system: UACC-257 melanoma
# UACC-62 melanoma = system: UACC-62 melanoma
# UO-31 renal = system: UO-31 renal
structure (smiles),measurement,setting,value
Cc1cc(N=Nc2ccccc2C)ccc1N,GI50,786-0 renal,2960 nM
same,TGI,786-0 renal,27 µM and 15.8 µM
same,GI50,A498 renal,4.38 µM
same,TGI,A498 renal,44.3 µM and 23.8 µM
same,GI50,A549 NSCLC,3.42 µM
same,TGI,A549 NSCLC,17.1 µM and 20.3 µM
same,GI50,ACHN renal,14.7 µM
same,TGI,ACHN renal,28.7 µM and 45.8 µM
same,TGI,BT-549 breast,23.2 µM
same,GI50,CAKI-1 renal,7.38 µM
same,TGI,CAKI-1 renal,46.5 µM and 28.7 µM
same,GI50,CCRF-CEM leukemia,435 nM
same,TGI,CCRF-CEM leukemia,> 100 µM
same,TGI,COLO 205 colon,33.6 µM and 32.4 µM
same,GI50,DU-145 prostate,9.35 µM
same,TGI,DU-145 prostate,27.2 µM
same,GI50,EKVX NSCLC,11.7 µM
same,TGI,EKVX NSCLC,45.4 µM and 68 µM
same,GI50,HCC-2998 colon,22 µM
same,TGI,HCC-2998 colon,24.9 µM and 53.5 µM
same,GI50,HCT-116 colon,13.2 µM
same,TGI,HCT-116 colon,29.5 µM and 27.3 µM
same,TGI,HCT-15 colon,25.2 µM and 33.4 µM
same,GI50,HL-60(TB) leukemia,486 nM
same,GI50,HOP-62 NSCLC,15.2 µM
same,TGI,HOP-62 NSCLC,19.2 µM and 36.4 µM
same,GI50,HOP-92 NSCLC,7.41 µM
same,TGI,HOP-92 NSCLC,25.1 µM and 26.8 µM
same,GI50,HS 578T breast,13.3 µM
same,TGI,HS 578T breast,32.1 µM and 45.9 µM
same,TGI,HT29 colon,33.3 µM and 38.2 µM
same,GI50,IGROV1 ovarian,5.1 µM
same,TGI,IGROV1 ovarian,48.3 µM and 20 µM
same,GI50,K-562 leukemia,12.8 µM
same,TGI,K-562 leukemia,32.8 µM and > 100 µM
same,GI50,KM12 colon,7.37 µM
same,TGI,KM12 colon,23.2 µM and 21.5 µM
same,GI50,LOX IMVI melanoma,13.9 µM
same,TGI,LOX IMVI melanoma,25 µM and 28.9 µM
same,GI50,M14 melanoma,16.1 µM
same,TGI,M14 melanoma,24.9 µM and 38.7 µM
same,GI50,MALME-3M melanoma,16.2 µM
same,TGI,MALME-3M melanoma,38.6 µM and 39 µM
same,GI50,MCF7 breast,16.5 µM
same,TGI,MCF7 breast,36.2 µM and 43.6 µM
same,GI50,MDA-MB-231 breast,12.7 µM
same,TGI,MDA-MB-231 breast,30.7 µM and 28.4 µM
same,GI50,MDA-MB-435,12.7 µM
same,TGI,MDA-MB-435,49.3 µM and 46 µM
same,TGI,MDA-N,39.6 µM
same,GI50,MOLT-4 leukemia,967 nM
same,TGI,MOLT-4 leukemia,> 100 µM
same,GI50,NCI-H226 lung,10.3 µM
same,TGI,NCI-H226 lung,30.8 µM and 27.8 µM
same,GI50,NCI-H23 lung,16.5 µM
same,TGI,NCI-H23 lung,14.7 µM and 42.3 µM
same,GI50,NCI-H460 lung,12.3 µM
same,TGI,NCI-H460 lung,17.7 µM and 31.2 µM
same,GI50,NCI-H522 lung,6.94 µM
same,TGI,NCI-H522 lung,22.9 µM
same,GI50,NCI/ADR-RES ovarian,13.7 µM
same,TGI,NCI/ADR-RES ovarian,25 µM and 43.2 µM
same,TGI,OVCAR-3 ovarian,21.8 µM and 23.7 µM
same,TGI,OVCAR-4 ovarian,62.3 µM
same,GI50,OVCAR-5 ovarian,15 µM
same,TGI,OVCAR-5 ovarian,41.3 µM and 37.6 µM
same,GI50,OVCAR-8 ovarian,20.7 µM
same,TGI,OVCAR-8 ovarian,34.6 µM and 96.4 µM
same,GI50,PC-3 prostate,5.99 µM
same,TGI,PC-3 prostate,26.8 µM and 91.5 µM
same,GI50,RPMI-8226 leukemia,1690 nM
same,TGI,RPMI-8226 leukemia,34.5 µM
same,GI50,RXF 393 renal,15.1 µM
same,TGI,RXF 393 renal,22.9 µM and 33.7 µM
same,GI50,SF-268 CNS,4.36 µM
same,TGI,SF-268 CNS,33.6 µM
same,TGI,SF-295 CNS,25.2 µM and 31.3 µM
same,TGI,SF-539 CNS,12.1 µM and 11.6 µM
same,TGI,SK-MEL-2 melanoma,33.5 µM
same,TGI,SK-MEL-28 melanoma,44.3 µM
same,GI50,SK-MEL-5 melanoma,14.1 µM
same,TGI,SK-MEL-5 melanoma,29.2 µM and 27.4 µM
same,GI50,SK-OV-3 ovarian,22.2 µM
same,TGI,SK-OV-3 ovarian,67 µM and 66.9 µM
same,GI50,SN12C renal,2860 nM
same,TGI,SN12C renal,27.4 µM and 16.3 µM
same,GI50,SNB-19 CNS,16.4 µM
same,TGI,SNB-19 CNS,> 100 µM and 56 µM
same,GI50,SNB-75 CNS,4.1 µM
same,TGI,SNB-75 CNS,28.1 µM and 31.9 µM
same,GI50,SR leukemia,8.49 µM
same,TGI,SR leukemia,52.1 µM and 61.6 µM
same,GI50,SW-620 colon,14.8 µM
same,TGI,SW-620 colon,48.5 µM and 30.8 µM
same,GI50,T-47D breast,13.3 µM
same,TGI,T-47D breast,78.5 µM
same,GI50,TK-10 renal,15.5 µM
same,TGI,TK-10 renal,49.3 µM and 72 µM
same,TGI,U251 CNS,35.7 µM and 30.4 µM
same,GI50,UACC-257 melanoma,20.2 µM
same,TGI,UACC-257 melanoma,38 µM and 44.9 µM
same,TGI,UACC-62 melanoma,25.1 µM and 30.6 µM
same,GI50,UO-31 renal,874 nM
same,TGI,UO-31 renal,13.2 µM and 11.3 µM
